Experiments:
Assay in all cases: relative viability (nuclei count vs DMSO), 5 days (fraction); higher = more cells survive
NCI-H522 = system: NCI-H522
Outline: (§1)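 Relative viability equals treated-well nuclei counts divided by vehicle-well nuclei counts. Counts came from 4× images of lung cancer cell lines grown in 1536-well plates for 5 days after pin-tool dosing on the day after seeding. Dosing used one drug alone or a fixed anchor-drug dose plus five library-drug doses (not always all listed) in √10 steps, and values are medians of duplicate plates.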

NCI-H2170 = system: NCI-H2170
Outline: as §1

LK-2 = system: LK-2
Outline: as §1

LXF-289 = system: LXF-289
Outline: as §1

UMC-11 = system: UMC-11
Outline: as §1

NCI-H441 = system: NCI-H441
Outline: as §1

NCI-H3122 = system: NCI-H3122
Outline: as §1

PC-3 [JPC-3] = system: PC-3 [JPC-3]
Outline: as §1

NCI-H1993 = system: NCI-H1993
Outline: as §1

LCLC-97TM1 = system: LCLC-97TM1
Outline: as §1

EKVX = system: EKVX
Outline: as §1

NCI-H2228 = system: NCI-H2228
Outline: as §1

NCI-H2405 = system: NCI-H2405
Outline: as §1

HOP-62 = system: HOP-62
Outline: as §1

SK-LU-1 = system: SK-LU-1
Outline: as §1

LU99A = system: LU99A
Outline: as §1

ChaGo-K-1 = system: ChaGo-K-1
Outline: as §1

H3255 = system: H3255
Outline: as §1

NCI-H1355 = system: NCI-H1355
Outline: as §1

SW 1573 = system: SW 1573
Outline: as §1

NCI-H1650 = system: NCI-H1650
Outline: as §1

HCC-827 = system: HCC-827
Outline: as §1

EPLC-272H = system: EPLC-272H
Outline: as §1

CN1CCN(CCOc2cc(OC3CCOCC3)c3c(Nc4c(Cl)ccc5c4OCO5)ncnc3c2)CC1 [Saracatinib] + Nc1nc2[nH]cc(CCc3ccc(C(=O)N[C@@H](CCC(=O)O)C(=O)O)cc3)c2c(=O)[nH]1 [Pemetrexed] (partner 0.2 µM)
relative viability (NCI-H522; first compound 0.02 µM): 1.15
relative viability (NCI-H522; first compound 0.2 µM): 0.918
relative viability (NCI-H522; first compound 0.6325 µM): 0.735
relative viability (NCI-H522; first compound 2 µM): 0.747
relative viability (NCI-H2170; first compound 0.02 µM): 0.25
relative viability (NCI-H2170; first compound 0.2 µM): 0.253
relative viability (NCI-H2170; first compound 0.6325 µM): 0.277
relative viability (NCI-H2170; first compound 2 µM): 0.202
relative viability (LK-2; first compound 0.02 µM): 0.32
relative viability (LK-2; first compound 0.2 µM): 0.199
relative viability (LK-2; first compound 0.6325 µM): 0.205
relative viability (LK-2; first compound 2 µM): 0.161
relative viability (LXF-289; first compound 0.02 µM): 0.875
relative viability (LXF-289; first compound 0.2 µM): 0.902
relative viability (LXF-289; first compound 0.6325 µM): 0.985
relative viability (LXF-289; first compound 2 µM): 1
relative viability (UMC-11; first compound 0.02 µM): 0.809
relative viability (UMC-11; first compound 0.2 µM): 0.699
relative viability (UMC-11; first compound 0.6325 µM): 0.898
relative viability (UMC-11; first compound 2 µM): 0.607
relative viability (NCI-H441; first compound 0.02 µM): 0.28
relative viability (NCI-H441; first compound 0.2 µM): 0.238
relative viability (NCI-H441; first compound 0.6325 µM): 0.316
relative viability (NCI-H441; first compound 2 µM): 0.272
relative viability (NCI-H3122; first compound 0.02 µM): 0.195
relative viability (NCI-H3122; first compound 0.2 µM): 0.169
relative viability (NCI-H3122; first compound 0.6325 µM): 0.197
relative viability (NCI-H3122; first compound 2 µM): 0.169
relative viability (PC-3 [JPC-3]; first compound 0.02 µM): 1.04
relative viability (PC-3 [JPC-3]; first compound 0.2 µM): 0.709
relative viability (PC-3 [JPC-3]; first compound 0.6325 µM): 0.656
relative viability (PC-3 [JPC-3]; first compound 2 µM): 0.469
relative viability (NCI-H1993; first compound 0.02 µM): 0.626
relative viability (NCI-H1993; first compound 0.2 µM): 0.519
relative viability (NCI-H1993; first compound 0.6325 µM): 0.642
relative viability (NCI-H1993; first compound 2 µM): 0.471
relative viability (LCLC-97TM1; first compound 0.02 µM): 0.18
relative viability (LCLC-97TM1; first compound 0.2 µM): 0.134
relative viability (LCLC-97TM1; first compound 0.6325 µM): 0.172
relative viability (LCLC-97TM1; first compound 2 µM): 0.136
relative viability (EKVX; first compound 0.02 µM): 0.429
relative viability (EKVX; first compound 0.6325 µM): 0.498
relative viability (EKVX; first compound 2 µM): 0.369
relative viability (NCI-H2228; first compound 0.02 µM): 0.355
relative viability (NCI-H2228; first compound 0.2 µM): 0.342
relative viability (NCI-H2228; first compound 0.6325 µM): 0.332
relative viability (NCI-H2228; first compound 2 µM): 0.266
relative viability (NCI-H2405; first compound 0.02 µM): 0.995
relative viability (NCI-H2405; first compound 0.2 µM): 0.671
relative viability (NCI-H2405; first compound 0.6325 µM): 0.843
relative viability (NCI-H2405; first compound 2 µM): 0.488
relative viability (HOP-62; first compound 0.02 µM): 0.377
relative viability (HOP-62; first compound 0.2 µM): 0.33
relative viability (HOP-62; first compound 0.6325 µM): 0.332
relative viability (HOP-62; first compound 2 µM): 0.375
relative viability (SK-LU-1; first compound 0.02 µM): 0.918
relative viability (SK-LU-1; first compound 0.2 µM): 0.868
relative viability (SK-LU-1; first compound 0.6325 µM): 0.654
relative viability (SK-LU-1; first compound 2 µM): 0.557
relative viability (LU99A; first compound 0.02 µM): 0.205
relative viability (LU99A; first compound 0.2 µM): 0.214
relative viability (LU99A; first compound 0.6325 µM): 0.173
relative viability (LU99A; first compound 2 µM): 0.165
relative viability (ChaGo-K-1; first compound 0.02 µM): 0.28
relative viability (ChaGo-K-1; first compound 0.2 µM): 0.254
relative viability (ChaGo-K-1; first compound 0.6325 µM): 0.26
relative viability (ChaGo-K-1; first compound 2 µM): 0.269
relative viability (H3255; first compound 0.02 µM): 0.591
relative viability (H3255; first compound 0.2 µM): 0.514
relative viability (H3255; first compound 0.6325 µM): 0.521
relative viability (H3255; first compound 2 µM): 0.421
relative viability (NCI-H1355; first compound 0.02 µM): 1
relative viability (NCI-H1355; first compound 0.2 µM): 1.02
relative viability (NCI-H1355; first compound 0.6325 µM): 1
relative viability (NCI-H1355; first compound 2 µM): 1.06
relative viability (SW 1573; first compound 0.02 µM): 0.823
relative viability (SW 1573; first compound 0.2 µM): 0.899
relative viability (SW 1573; first compound 0.6325 µM): 0.794
relative viability (SW 1573; first compound 2 µM): 0.767
relative viability (NCI-H1650; first compound 0.02 µM): 0.343
relative viability (NCI-H1650; first compound 0.2 µM): 0.357
relative viability (NCI-H1650; first compound 0.6325 µM): 0.318
relative viability (NCI-H1650; first compound 2 µM): 0.307
relative viability (HCC-827; first compound 0.02 µM): 0.286
relative viability (HCC-827; first compound 0.2 µM): 0.158
relative viability (HCC-827; first compound 0.6325 µM): 0.189
relative viability (HCC-827; first compound 2 µM): 0.168
relative viability (EPLC-272H; first compound 0.02 µM): 0.334
relative viability (EPLC-272H; first compound 0.2 µM): 0.313
relative viability (EPLC-272H; first compound 0.6325 µM): 0.239
relative viability (EPLC-272H; first compound 2 µM): 0.251

Reference: the supplement of paper PMC10307832
